Each molecule was assayed against PDEV (Oryctolagus cuniculus, UniProt G1SX67) (assay: Cyclic nucleotide phosphodiesterase (PDE) assay, inhibition of PDEV isolated from rabbit tissue). Conditions: 10 μM test compound; rabbit PDEV.
Type: biochemical
Experimental: Briefly, rabbit or human tissues were homogenized in an ice-cold buffer solution containing 20 mM HEPES (pH 7.2), 0.25M sucrose, 1 mM EDTA, and 1 mM phenylmethylsulphonyl fluoride (PMSF). The homogenates were centrifuged at 100,000 g for 60 minutes at 4° C. The supernatant was filtered through […] filter and loaded on a Pharmacia Mono Q anion exchange column (1 ml bed volume) that was equilibrated with 20 mM HEPES, 1 mM EDTA and 0.5 mM PMSF. […] The fractions comprising various PDE activities were pooled separately and used in later studies.
The assays were adapted to a 96-well format. The enzyme was assayed in 5 mM MgCl2, 15 mM Tris HCl (pH 7.4), 0.5 mg/ml bovine serum albumin, 1 μM cGMP or cAMP, 0.1 μCi [^3H]-cGMP or [^3H]-cAMP, and 2-10 μl of column elution. The total volume of the assay was 100 μl. The reaction mixture was incubated at 30° C. for 30 minutes. The reaction was stopped by boiling for 1 minute and then cooled down on ice. The resulting [^3H] 5′-mononucleotides were further converted to uncharged [^3H]-nucleosides by adding 25 μl 1 mg/ml snake venom (Ophiophagus hannah) and incubating at 30° C. for 10 minute. The reaction was stopped by the addition of 1 ml Bio-Rad AG1-X2 resin slurry (1:3). All the charged nucleotides were bound by the resin and only the uncharged [^3H]-nucleosides remained in the supernatant after centrifuging. An aliquot of 200 μl was taken and counted by liquid scintillation. PDE activity was expressed as pmol cyclic nucleotide hydrolyzed/min/ml of enzyme preparation.
Inhibitor studies were carried out in assay buffer with a final concentration of 10% DMSO.

SMILES | % Inh @ 10 μM (rabbit) [%]
CN(C)CCn1c2c(c3ccccc31)CCN(C(=O)c1ccc(-c3ccccc3[N+](=O)[O-])o1)C2c1ccc2c(c1)OCO2 (centres unmarked) [Cmpd 41] | 93
Cc1ccc(-c2ccc(C(=O)N3CCc4c(n(CCN(C)C)c5ccccc45)C3c3ccc4c(c3)OCO4)o2)c([N+](=O)[O-])c1 (centres unmarked) [Cmpd 42] | 89
CN(C)CCn1c2c(c3ccccc31)CCN(C(=O)c1ccc(-c3cc(C(F)(F)F)ccc3Cl)o1)C2c1ccc2c(c1)OCO2 (centres unmarked) [Cmpd 43] | 22
CN(C)CCCn1c2c(c3ccccc31)CCN(C(=O)c1ccc(-c3cccc(C(F)(F)F)c3)o1)C2c1ccc2c(c1)OCO2 (centres unmarked) [Cmpd 44] | 65
CC(=O)Nc1ccc(-c2ccc(C(=O)N3CCc4c([nH]c5ccccc45)C3c3ccc4c(c3)OCO4)o2)cc1 (centres unmarked) [Cmpd 49] | 60
O=C(c1ccc(-c2ccc([N+](=O)[O-])cc2)o1)N1CCc2c([nH]c3ccccc23)C1c1ccc2c(c1)OCO2 (centres unmarked) [Cmpd 50] | 76
Cc1ccc(-c2ccc(C(=O)N3CCc4c([nH]c5ccccc45)C3c3ccc4c(c3)OCO4)o2)c([N+](=O)[O-])c1 (centres unmarked) [Cmpd 53] | 85
O=C(c1ccc(-c2cccc([N+](=O)[O-])c2)o1)N1CCc2c([nH]c3ccccc23)C1c1ccc2c(c1)OCO2 (centres unmarked) [Cmpd 54] | 81
CC(=O)Nc1cccc(-c2ccc(C(=O)N3CCc4c([nH]c5ccccc45)C3c3ccc4c(c3)OCO4)o2)c1 (centres unmarked) [Cmpd 55] | 70
O=C(c1ccc(-c2cc(C(F)(F)F)ccc2Cl)o1)N1CCc2c([nH]c3ccccc23)C1c1ccc2c(c1)OCO2 (centres unmarked) [Cmpd 57] | 76
Nc1cccc(-c2ccc(C(=O)N3CCc4c([nH]c5ccccc45)C3c3ccc4c(c3)OCO4)o2)c1 (centres unmarked) [Cmpd 59] | 92
O=C(c1ccc(-c2ccc(NCCCCO)cc2)o1)N1CCc2c([nH]c3ccccc23)C1c1ccc2c(c1)OCO2 (centres unmarked) [Cmpd 60] | 89
O=C(c1ccc(C(F)(F)F)o1)N1CCc2c([nH]c3ccccc23)C1c1ccc2c(c1)OCO2 (centres unmarked) [Cmpd 62] | 86
O=C(c1ccc(Br)o1)N1CCc2c([nH]c3ccccc23)C1c1ccc2c(c1)OCO2 (centres unmarked) [Cmpd 63] | 78
O=C(c1ccc([N+](=O)[O-])o1)N1CCc2c([nH]c3ccccc23)C1c1ccc2c(c1)OCO2 (centres unmarked) [Cmpd 64] | 83
CC(C)(C)c1ccc(C(=O)N2CCc3c([nH]c4ccccc34)C2c2ccc3c(c2)OCO3)o1 (centres unmarked) [Cmpd 65] | 66
O=C(O)C1Cc2c([nH]c3ccccc23)C(c2ccc3c(c2)OCO3)N1C(=O)c1ccc(-c2cccc([N+](=O)[O-])c2)o1 (centres unmarked) [Cmpd 67] | 50
CN(C)CCOC(=O)C1Cc2c([nH]c3ccccc23)C(c2ccc3c(c2)OCO3)N1C(=O)c1ccc(-c2cccc([N+](=O)[O-])c2)o1 (centres unmarked) [Cmpd 68] | 35
CN(C)CCNC(=O)C1Cc2c([nH]c3ccccc23)C(c2ccc3c(c2)OCO3)N1C(=O)c1ccc(-c2cccc(C(F)(F)F)c2)o1 (centres unmarked) [Cmpd 69] | 21
O=C(O)C1Cc2c([nH]c3ccccc23)C(c2ccc3c(c2)OCO3)N1C(=O)c1ccc(-c2cccc(C(F)(F)F)c2)o1 (centres unmarked) [Cmpd 70] | 46
COC(=O)C1Cc2c([nH]c3ccccc23)C(c2ccc3c(c2)OCO3)N1C(=O)c1ccc(-c2cccc([N+](=O)[O-])c2)o1 (centres unmarked) [Cmpd 73] | 20
O=C(c1ccc(-c2cccc(C(F)(F)F)c2)o1)N1CCc2c(n(Cc3ccncc3)c3ccccc23)C1c1ccc2c(c1)OCO2 (centres unmarked) [Cmpd 74] | 84
O=C(c1ccc(-c2cccc([N+](=O)[O-])c2)o1)N1CCc2c(sc3ccccc23)C1c1ccc2c(c1)OCO2 (centres unmarked) [Cmpd 76] | 27
O=C(c1ccc(-c2ccc(Cl)cc2)o1)N1CCc2c(sc3ccccc23)C1c1ccc2c(c1)OCO2 (centres unmarked) [Cmpd 77] | 58
O=C(c1ccc(-c2cccc(C(F)(F)F)c2)o1)N1CCc2c([nH]c3ccccc23)C1c1cccnc1 (centres unmarked) [Cmpd 78] | 35
N#Cc1ccc(C2c3[nH]c4ccccc4c3CCN2C(=O)c2ccc(-c3cccc([N+](=O)[O-])c3)o2)cc1 (centres unmarked) [Cmpd 80] | 27
N#Cc1ccc(C2c3[nH]c4ccccc4c3CCN2C(=O)c2ccc(-c3cccc(C(F)(F)F)c3)o2)cc1 (centres unmarked) [Cmpd 81] | 18

SMILES | % Inh @ 10 μM (rabbit) [%]
CN(C)c1ccc(C2c3[nH]c4ccccc4c3CCN2C(=O)c2ccc(-c3cccc(C(F)(F)F)c3)o2)cc1 (centres unmarked) [Cmpd 82] | 13
CN(C)c1ccc(C2c3[nH]c4ccccc4c3CCN2C(=O)c2ccc(-c3cccc([N+](=O)[O-])c3)o2)cc1 (centres unmarked) [Cmpd 83] | 27
O=C(c1ccc(-c2cccc(C(F)(F)F)c2)o1)N1CCc2c([nH]c3ccccc23)C1c1ccc([N+](=O)[O-])cc1 (centres unmarked) [Cmpd 84] | 20
O=C(c1ccc(-c2cccc([N+](=O)[O-])c2)o1)N1CCc2c([nH]c3ccccc23)C1c1ccc([N+](=O)[O-])cc1 (centres unmarked) [Cmpd 85] | 26
O=C(c1ccc(-c2cccc([N+](=O)[O-])c2)o1)N1CCc2c([nH]c3ccccc23)C1c1ccncc1 (centres unmarked) [Cmpd 86] | 69
O=C(c1ccc(-c2cccc(C(F)(F)F)c2)o1)N1CCc2c([nH]c3ccccc23)C1c1ccncc1 (centres unmarked) [Cmpd 87] | 34
O=C(c1ccc(-c2cccc(C(F)(F)F)c2)o1)N1CCc2c([nH]c3ccccc23)C1c1ccccc1 (centres unmarked) [Cmpd 88] | 49
O=C(c1cc(-c2ccccc2)c(C(F)(F)F)s1)N1CCc2c([nH]c3ccccc23)C1c1ccc2c(c1)OCO2 (centres unmarked) [Cmpd 90] | 69
O=C(c1ccc(-c2ccc(Cl)cc2)s1)N1CCc2c([nH]c3ccccc23)C1c1ccc2c(c1)OCO2 (centres unmarked) [Cmpd 91] | 82
O=C(c1cnn(-c2ccccc2)c1C(F)(F)F)N1CCc2c([nH]c3ccccc23)C1c1ccc2c(c1)OCO2 (centres unmarked) [Cmpd 123] | 56
O=C(c1cnn(-c2ccc(Cl)cc2)c1C(F)(F)F)N1CCc2c([nH]c3ccccc23)C1c1ccc2c(c1)OCO2 (centres unmarked) [Cmpd 124] | 53
O=C(c1cnn(-c2ccc([N+](=O)[O-])cc2)c1C(F)(F)F)N1CCc2c([nH]c3ccccc23)C1c1ccc2c(c1)OCO2 (centres unmarked) [Cmpd 125] | 54
Cc1cc(C)cc(C2c3[nH]c4ccccc4c3CCN2C(=O)c2cnn(-c3ccccc3)c2C(F)(F)F)c1 (centres unmarked) [Cmpd 126] | 12
O=C(c1cnn(-c2ccccc2)c1C(F)(F)F)N1CCc2c([nH]c3ccccc23)C1c1ccc(Cl)c(C(F)(F)F)c1 (centres unmarked) [Cmpd 127] | 13
N#Cc1ccc(C2c3[nH]c4ccccc4c3CCN2C(=O)c2cnn(-c3ccccc3)c2C(F)(F)F)cc1 (centres unmarked) [Cmpd 128] | 11
COC(=O)c1ccc(C2c3[nH]c4ccccc4c3CCN2C(=O)c2cnn(-c3ccccc3)c2C(F)(F)F)cc1 (centres unmarked) [Cmpd 129] | 46
COc1ccc(C2c3[nH]c4ccccc4c3CCN2C(=O)c2cnn(-c3ccccc3)c2C(F)(F)F)cc1 (centres unmarked) [Cmpd 130] | 45
O=C(c1cnn(-c2ccccc2)c1C(F)(F)F)N1CCc2c([nH]c3ccccc23)C1c1ccc([N+](=O)[O-])cc1 (centres unmarked) [Cmpd 131] | 12
CC(C)(C)c1cc(C(=O)N2CCc3c([nH]c4ccccc34)C2c2ccc(Cl)c(Cl)c2)n(Cc2ccccc2)n1 (centres unmarked) [Cmpd 133] | 1
COc1ccc(C2c3[nH]c4ccccc4c3CCN2C(=O)c2cc(C(C)(C)C)nn2Cc2ccccc2)cc1OC (centres unmarked) [Cmpd 134] | 5
Cc1ccc(C2c3[nH]c4ccccc4c3CCN2C(=O)c2cc(C(C)(C)C)nn2Cc2ccccc2)cc1C (centres unmarked) [Cmpd 135] | 8
CC(C)(C)c1cc(C(=O)N2CCc3c([nH]c4ccccc34)C2c2ccc3c(c2)OCO3)n(Cc2ccccc2)n1 (centres unmarked) [Cmpd 136] | 18
Cc1cc(C)cc(C2c3[nH]c4ccccc4c3CCN2C(=O)c2cc(C(C)(C)C)nn2Cc2ccccc2)c1 (centres unmarked) [Cmpd 137] | −3
CC(C)(C)c1cc(C(=O)N2CCc3c([nH]c4ccccc34)C2c2ccc(Cl)c(C(F)(F)F)c2)n(Cc2ccccc2)n1 (centres unmarked) [Cmpd 138] | 13
CC(C)(C)c1cc(C(=O)N2CCc3c([nH]c4ccccc34)C2c2ccc(C#N)cc2)n(Cc2ccccc2)n1 (centres unmarked) [Cmpd 139] | −9
COC(=O)c1ccc(C2c3[nH]c4ccccc4c3CCN2C(=O)c2cc(C(C)(C)C)nn2Cc2ccccc2)cc1 (centres unmarked) [Cmpd 140] | 8
COc1ccc(C2c3[nH]c4ccccc4c3CCN2C(=O)c2cc(C(C)(C)C)nn2Cc2ccccc2)cc1 (centres unmarked) [Cmpd 141] | 11

Same assay, conditions: 10 μM test compound; rabbit PDEV; 10 µM

SMILES | % Inh @ 10 μM (rabbit) [%]
O=C(c1ccc(-c2ccc(Cl)cc2[N+](=O)[O-])o1)N1CCc2c([nH]c3ccccc23)C1c1ccc2c(c1)OCO2 (centres unmarked) [Cmpd 47] | 83
O=C(c1ccc(-c2ccc(Cl)cc2[N+](=O)[O-])o1)N1CCc2c([nH]c3ccccc23)C1c1ccc2c(c1)OCO2 (centres unmarked) [Cmpd 66] | 23

Reference: patent US6864253B2, “Benzo[4,5]thieno[2,3-c]pyridine and Benzo[4,5]furo[2,3-c]pyridine Derivatives Useful as Inhibitors of Phosphodiesterase” (Orth-McNeil Pharmaceutical, Inc., priority 2000, dated 2005)
